In ChEMBL document CHEMBL1150630, “Oxidation, reduction, and methylation of carnosic acid by Nocardia” (J Nat Prod, 2002) one finds IC50 data, which are given here for seven compounds.

In this experiment the test system is Radical scavenging activity. The experiment can be described thus: Antioxidant activity assessed as DPPH free radical scavenging activity after 30 mins. The format is functional.
In general, IC50 refers to the concentration at which inhibition is half-maximal. Turning to `CC(C)c1cc2c(c(O)c1O)[C@@]13CCCC(C)(C)[C@@H]1C[C@@H]2OC3=O` [CARNOSOL], the IC50 was 114 µM.

On to `COc1c(C(C)C)cc2c(c1O)[C@@]1(CO)CCCC(C)(C)[C@@H]1CC2`, for which the IC50 is 83.4 µM.

`CC1(C)CCC[C@@]23C(=O)OC(C[C@@H]12)c1cc(C(CO)CO)c(O)c(O)c13`: the IC50 was 66 µM.

For the compound `CC(C)c1cc2c(c(O)c1O)[C@@]1(C(=O)O)CCCC(C)(C)[C@@H]1CC2` [CARNOSIC ACID], the IC50 came out at 53.3 µM.

Turning to `O=C1O[C@H]([C@@H](O)CO)C(O)=C1O` [ASCORBIC ACID], the IC50 is 66.8 µM.

As to `CCCOC(=O)c1cc(O)c(O)c(O)c1` [PROPYL GALLATE], the IC50 worked out at 46.1 µM.

As for `Oc1cccc(O)c1O` [PYROGALLOL], the IC50 was 37.8 µM.
